US20220330549A1, “USE OF N-BENZYLBENZAMIDE-BASED COMPOUND AS HERBICIDE” (Northwest A&F University, priority 2020, published 2022)

Key:
Assay type in all cases: in vivo
Barnyard grass [1] = assay: Herbicidal activity test for indoor pre-emergence soil treatment; conditions: 150 g a.i./ha, visual inspection 21 days after treatment
Summary of the method: (§1)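 Pre-emergence test following NY/T 1155.3-2006: weed seeds were sown in moistened neutral sandy loam (≤2% organic matter) and covered with 0.5–2.0 cm of soil. After 24 h, the soil was sprayed with a 10% EC diluted in water at 150 g(a.i.)/ha. Damage was scored visually on a 1–9 scale at 21 days.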

Piemarker [2] = assay: as above; conditions: 150 g a.i./ha, visual inspection 21 days after treatment
Summary of the method: as §1

green bristlegrass [3] = assay: as above; conditions: 150 g a.i./ha, visual inspection 21 days after treatment
Summary of the method: as §1

Amaranthus retroflexus [4] = assay: as above; conditions: 150 g a.i./ha, visual inspection 21 days after treatment
Summary of the method: as §1

Digitaria sanguinalis [5] = assay: as above; conditions: 150 g a.i./ha, visual inspection 21 days after treatment
Summary of the method: as §1

Humulus scandens [6] = assay: as above; conditions: 150 g a.i./ha, visual inspection 21 days after treatment
Summary of the method: as §1

Amaranthus retroflexus [7] = assay: Herbicidal activity test for indoor post-emergence spraying on stems and leaves; conditions: 150 g a.i./ha, visual inspection 21 days after treatment
Summary of the method: (§2)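 Greenhouse-grown weeds, post-emergence foliar spray (NY/T 1155.4-2006 method); visual scoring at 21 d post-treatment as levels vs. untreated blank control (e.g., level 5 = 10.1–15%, level 8 = 35.1–67.5% of control weed).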

Barnyard grass [8] = assay: as above; conditions: 150 g a.i./ha, visual inspection 21 days after treatment
Summary of the method: as §2

Digitaria sanguinalis [9] = assay: as above; conditions: 150 g a.i./ha, visual inspection 21 days after treatment
Summary of the method: as §2

Humulus scandens [10] = assay: as above; conditions: 150 g a.i./ha, visual inspection 21 days after treatment
Summary of the method: as §2

Piemarker [11] = assay: as above; conditions: 150 g a.i./ha, visual inspection 21 days after treatment
Summary of the method: as §2

green bristlegrass [12] = assay: as above; conditions: 150 g a.i./ha, visual inspection 21 days after treatment
Summary of the method: as §2

Broadleaf weed = assay: Post-emergence herbicidal activity test in a paddy field; conditions: 150 g a.i./ha (penoxsulam control 250 g(a.i.)/h)
Summary of the method: (§3)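 Efficacy was visually estimated 15 and 30 days after spraying, grading weed coverage relative to an untreated neighbouring plot (level 2 = 0 to 2.5%, level 9 = 67.6 to 100%). Treatments were 150 g(a.i.)/ha from 10% emulsifiable concentrates applied at the 4-5 leaf rice stage, four repeats of 50 m^2 each.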

Cyperaceae = assay: as above; conditions: 150 g a.i./ha (penoxsulam control 250 g(a.i.)/h)
Summary of the method: as §3

Gramineae = assay: as above; conditions: 150 g a.i./ha (penoxsulam control 250 g(a.i.)/h)
Summary of the method: as §3

Acalypha australis = assay: Field test for weed control in a corn field
Summary of the method: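 Herbicidal activity against weeds was assessed in corn plots by the GB/T 17980.42-2000 method. Corn at the 2–5 leaf stage received water sprays of 10% emulsifiable concentrates at 150 g(a.i.)/ha, four repeats per treatment over 20 m^2. A 25% mesotrione oil dispersion was the reference. Damage symptoms and severity were rated on levels 1-9 relative to weeds in the blank control area.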

Amaranthus retroflexus [13] = assay: Field test for weed control in a corn field
Summary of the method: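 Post-emergence control of Amaranthus retroflexus was assessed in corn plots using the GB/T 17980.42-2000 method. Emulsifiable concentrates (10%) in water were applied by spraying at the 2- to 5-leaf crop stage on 20 m^2 plots, four replicates each, alongside a mesotrione 25% oil dispersion reference. Herbicidal activity was scored on 1-9 levels by weed amount relative to blank control areas.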

Barnyard grass [14] = assay: Field test for weed control in a corn field
Summary of the method: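 Herbicidal activity against barnyard grass was assessed in corn field plots of 20 m^2, with four replicates per treatment. Compounds were applied as water-diluted 10% emulsifiable concentrates at 150 g(a.i.)/ha at the 2-5 leaf corn stage, with 25% mesotrione oil dispersion as the reference agent. Damage was scored on a 1-9 scale against untreated blank plots.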

Chenopodium album = assay: Field test for weed control in a corn field
Summary of the method: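 Field weed-control testing in corn, run per GB/T 17980.42-2000, scored Chenopodium album on a 1-9 level scale, where each level matches a percentage range of weed remaining relative to the blank control area. Sprays of 10% emulsifiable concentrates in water delivered 150 g(a.i.)/ha at the corn 2-leaf to 5-leaf stage on 20 m^2 plots, four replicates each. Mesotrione 25% oil dispersion served as reference.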

Convolvulus arvensis = assay: Field test for weed control in a corn field
Summary of the method: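 Post-emergence herbicidal activity on Convolvulus arvensis was scored in a corn field on a 1-9 scale, based on symptoms and damage severity. Each level corresponds to the weed remaining as a percentage of the blank control area. Sprays of 10% emulsifiable concentrate at 150 g(a.i.)/ha went on at the corn 2–5 leaf stage, with four replicates of 20 m^2 per treatment.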

Digitaria sanguinalis [15] = assay: Field test for weed control in a corn field
Summary of the method: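 Field trial in a corn field following GB/T 17980.42-2000. Test compounds were formulated as 10% emulsifiable concentrates, diluted in water and sprayed post-emergence at 150 g(a.i.)/ha when corn had 2 to 5 leaves, with 4 replicates on 20 m^2 plots. Control of Digitaria sanguinalis was scored on a 1-9 scale based on weed damage relative to the untreated blank area.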

Portulaca oleracea = assay: Field test for weed control in a corn field
Summary of the method: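 Post-emergence weed control was evaluated in a corn field by the GB/T 17980.42-2000 method. Emulsifiable concentrates (10%) in water were applied as sprays at 150 g(a.i.)/ha at the 2-5 leaf corn stage, in four replicate 20 m^2 plots. A 25% mesotrione oil dispersion served as control agent. Effects were graded 1-9 relative to weed remaining in blank control areas.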

Solanum nigrum = assay: Field test for weed control in a corn field
Summary of the method: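 In a corn field trial based on GB/T 17980.42-2000, 10% emulsifiable concentrates diluted in water were sprayed at 150 g(a.i.)/ha at the 2 to 5 leaf stage of corn. Each treatment used 20 m^2 plots and was repeated 4 times, with 25% mesotrione oil dispersion as the reference agent. Solanum nigrum damage was scored on a 1-9 scale against blank control plots.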

goosegrass = assay: Field test for weed control in a corn field
Summary of the method: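 In this field trial in corn, run per GB/T 17980.42-2000, test agents prepared as 10% emulsifiable concentrates were applied in water as sprays at 150 g(a.i.)/ha at the 2- to 5-leaf corn stage. Each treatment covered 20 m^2 and was repeated 4 times. Goosegrass control was scored 1-9 relative to weed remaining in blank control areas.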

green bristlegrass [16] = assay: Field test for weed control in a corn field
Summary of the method: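 Herbicidal activity against green bristlegrass was assessed in corn field plots of 20 m^2 per GB/T 17980.42-2000. Test agents, formulated as 10% emulsifiable concentrates, were applied in water at 150 g(a.i.)/ha at the corn 2 leaves to 5 leaves stage, repeated 4 times. A 25% mesotrione oil dispersion served as the control agent, and weed damage was rated on levels 1-9.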

nutgrass flatsedge = assay: Field test for weed control in a corn field
Summary of the method: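 Herbicidal effect on nutgrass flatsedge was measured in a field planted with corn, using the GB/T 17980.42-2000 method. Emulsifiable concentrates (10%) in water were sprayed at 150 g(a.i.)/ha during the 2-leaf to 5-leaf corn stage, on 20 m^2 plots repeated 4 times. 25% mesotrione oil dispersion was the control agent. Activity was scored from 1 to 9 by weed remaining relative to blank control plots.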

[17] = 150 g(a.i.)/ha, 21 days after treatments
[18] = 150 g a.i./ha, 30 days after treatment

Cc1cccc(CNC(=O)c2cccc(C)c2)c1 [Compound B14, 3-methyl-N-(3-methylbenzyl)benzamide]
Herbicidal Activity Barnyard grass (Barnyard grass [1]): 1 | Herbicidal Activity Piemarker (Piemarker [2]): 1 | Herbicidal Activity Green bristlegrass (green bristlegrass [3]): 1 | Herbicidal Activity Amaranthus retroflexus (Amaranthus retroflexus [4]): 2 (equivalent to 0 to 2.5% of the weed in the blank control area) | Herbicidal Activity Digitaria sanguinalis (Digitaria sanguinalis [5]): 2 (equivalent to 0 to 2.5% of the weed in the blank control area) | Herbicidal Activity Humulus scandens (Humulus scandens [6]): 3 (equivalent to 2.6 to 5% of the weed in the blank control area) | Herbicidal Activity Amaranthus retroflexus (Amaranthus retroflexus [7]): 1 | Herbicidal Activity Barnyard grass (Barnyard grass [8]): 1 | Herbicidal Activity Digitaria sanguinalis (Digitaria sanguinalis [9]): 1 | Herbicidal Activity Humulus scandens (Humulus scandens [10]): 1 | Herbicidal Activity Piemarker (Piemarker [11]): 1 | Herbicidal Activity Green bristlegrass (green bristlegrass [12]): 1 | Herbicidal activity 15 days after treatment Broadleaf weed (Broadleaf weed; 15 days after treatment): 1 | Herbicidal activity 30 days after treatment Broadleaf weed (Broadleaf weed; 30 days after treatment): 1 | Herbicidal activity 15 days after treatment Cyperaceae (Cyperaceae; 15 days after treatment): 1 | Herbicidal activity 30 days after treatment Cyperaceae (Cyperaceae; 30 days after treatment): 1 | Herbicidal activity 15 days after treatment Gramineae (Gramineae; 15 days after treatment): 1 | Herbicidal activity 30 days after treatment Gramineae (Gramineae; 30 days after treatment): 1 | Post-emergence weed control effect, Acalypha australis (Acalypha australis; 150 g a.i./ha, after treatment): 1 | controlling effect on Acalypha australis (Acalypha australis; [17]): 1 | Post-emergence weed control effect, Amaranthus retroflexus (Amaranthus retroflexus [13]; [18]): 1 | controlling effect on Amaranthus retroflexus (Amaranthus retroflexus [13]; [17]): 1 | Post-emergence weed control effect, Barnyard grass (Barnyard grass [14]; [18]): 1 | controlling effect on barnyard grass (Barnyard grass [14]; [17]): 1 | Post-emergence weed control effect, Chenopodium album (Chenopodium album; 150 g a.i./ha, after treatment): 1 | controlling effect on Chenopodium album (Chenopodium album; [17]): 1 | Post-emergence weed control effect, Convolvulus arvensis (Convolvulus arvensis; 150 g a.i./ha, after treatment): 1 | controlling effect on Convolvulus arvensis (Convolvulus arvensis; [17]): 1 | Post-emergence weed control effect, Digitaria sanguinalis (Digitaria sanguinalis [15]; 150 g a.i./ha, after treatment): 1 | controlling effect on Digitaria sanguinalis (Digitaria sanguinalis [15]; [17]): 1 | Post-emergence weed control effect, Portulaca oleracea (Portulaca oleracea; 150 g a.i./ha, after treatment): 1 | controlling effect on Portulaca oleracea (Portulaca oleracea; [17]): 1 | Post-emergence weed control effect, Solanum nigrum (Solanum nigrum; [18]): 1 | controlling effect on Solanum nigrum (Solanum nigrum; [17]): 1 | Post-emergence weed control effect, Goose grass (goosegrass; 150 g a.i./ha, after treatment): 1 | controlling effect on goosegrass (goosegrass; [17]): 1 | Post-emergence weed control effect, Green bristlegrass (green bristlegrass [16]; 150 g a.i./ha, after treatment): 1 | controlling effect on green bristlegrass (green bristlegrass [16]; [17]): 1 | Post-emergence weed control effect, Nutgrass flatsedge (nutgrass flatsedge; 150 g a.i./ha, after treatment): 1 | controlling effect on nutgrass flatsedge (nutgrass flatsedge; [17]): 1
